From patent publication US20110052723A1, “USE OF COMPOUNDS BINDING TO THE SIGMA RECEPTOR LIGANDS FOR THE TREATMENT OF NEUROPATHIC PAIN DEVELOPING AS A CONSEQUENCE OF CHEMOTHERAPY” (priority 2008, published 2011)

Legend:
CD-1 mice [1] = assay: Paclitaxel-induced mechanical allodynia, Von Frey test; format: in vivo
Procedure: Procedure for assessment of mechanical allodynia. To assess mechanical allodynia, paw withdrawal thresholds were measured using a Dynamic Plantar Aesthesiometer (Ugo Basile, Italy). The electronic Von Frey device employs a single nonflexible filament which applies a progressively increasing force (from 0 to 10 g) against the plantar surface of the hind paw over a 20 s period. […] The day of the experiment, mice were placed individually in test compartments (9×9×14 cm) with a wire mesh bottom and allowed to acclimatize to them for 2 h. After habituation, each mouse was tested three times alternately in each hind paw.

CD-1 mice [2] = assay: Paclitaxel-induced cold allodynia, acetone test
Procedure: Experiments were performed in CD-1 mice (Charles River, U.S.A.) with at least n=10/experimental group. […] Control animals received the same volume of solvent (a mixture of ethanol and cremophor EL)
Mechanical allodynia was evaluated with an electronically driven Von Frey filament (Dynamic Plantar Aesthesiometer, Ugo Basile, Varese, Italy) as previously described (Nieto et al., 2008), and cold allodynia was evaluated using the acetone drop method (Polomano et al., 2001; Smith et al., 2004).
In addition, in order to study the influence of the sigma 1 receptor in this process the difference in development of allodynia was determined using wild-type mice and sigma 1-receptor knock-out-mice.
Therefore, the cumulative dose was 10 mg/kg per mouse.
BD-1063 was dissolved in normal saline just before administration and applied at doses of 8, 16, 32 or 64 mg/kg subcutaneously.
The response of the animals to the different nociceptive stimuli was tested subsequently during 2-4 weeks, depending on the test (see below), without any additional treatment. Each animal was tested only in one nociceptive model. […] Each animal received only one dose of BD-1063 and was tested in only one nociceptive model.
Procedure for assessment of cold allodynia. Cold allodynia was tested as previously described by Smith et al., 2004, by gently touching the plantar skin of the hind paws with an acetone bubble formed with a syringe connected to a thin polyethylene tube. The mice were housed and habituated for 30 min in transparent plastic boxes (7×7×13 cm) with a floor made of wire mesh. After the adaptation period, acetone was applied alternately three times to each paw at intervals of 30 s, and the duration and frequency of licking or biting were recorded. A small mirror was placed behind the chambers to allow clear observation of the paws. The time spent licking or biting the paw was recorded by a stopwatch and represented as the cumulative time of licking/biting in the six measurements. Since licking persisting more than 10 s in the experiments was very unusual, a cut-off time of 10 s was used for each trial.
Therefore, the day 10, after the habituation period to the apparatus, baseline latencies were recorded, 30 min later BD-1063 or saline was injected s.c. and paw withdrawal latencies were assessed again 30, 60, 90, 120 and 180 minutes after the injection.

patients = details: paclitaxel 135 mg/m^2; cited from earlier work
sigma receptor = details: Sigma 1 and Sigma 2; cited from earlier work
[3] = sigma-1-receptor knockout animals, paclitaxel 2 mg/kg i.p. once daily during 5 days
[4] = wild-type animals, paclitaxel 2 mg/kg i.p. once daily during 5 days

## CN1CCN(CCc2ccc(Cl)c(Cl)c2)CC1 [BD-1063]
CD-1 mice [1]; single s.c. injection on day 10, 32 or 64 mg/kg, dose-dependent, significantly different from saline
  expression of paclitaxel-induced mechanical allodynia (threshold force for paw withdrawal): inhibited the expression of paclitaxel-induced mechanical allodynia
CD-1 mice [2]; BD-1063 32 mg/kg 30 min before each paclitaxel injection (2 mg/kg i.p.), days 1 to 5, tested to day 24
  development of paclitaxel-induced cold allodynia (duration of hind paw licking/biting): inhibited the development of cold allodynia
CD-1 mice [2]; single s.c. injection on day 10, 8, 16, 32 or 64 mg/kg, dose-dependent, significantly different from saline
  expression of paclitaxel-induced cold allodynia (duration of hind paw licking/biting): inhibited the expression of paclitaxel-induced cold allodynia

## CC(=O)O[C@H]1C(=O)[C@@]2(C)[C@H]([C@H](OC(=O)c3ccccc3)[C@]3(O)C[C@H](OC(=O)[C@H](O)[C@@H](NC(=O)c4ccccc4)c4ccccc4)C(C)=C1C3(C)C)[C@]1(OC(C)=O)CO[C@@H]1C[C@@H]2O [paclitaxel, Paclitaxel]
CD-1 mice [1]; paclitaxel 2 mg/kg i.p. during 5 days, vs pre-treatment and vehicle
  mechanical allodynia (threshold force for paw withdrawal) on day 10: induced mechanical allodynia
CD-1 mice [1]; [3]
  paclitaxel-induced mechanical allodynia: not significantly expressed
CD-1 mice [1]; treated with paclitaxel
  animals showing a reduction of the mechanical threshold: 96%
CD-1 mice [1]; [4]
  time of maximal paclitaxel-induced mechanical allodynia after the first injection: 10 days
CD-1 mice [2]; control mice, paclitaxel 2 mg/kg i.p. once daily during 5 days
  time of maximal paclitaxel-induced cold allodynia after the first injection: 10 to 14 days
CD-1 mice [2]; paclitaxel 2 mg/kg i.p. once daily during 5 days
  animals with significantly increased time licking/biting the stimulated paw (paclitaxel-responder animals): 67%
CD-1 mice [2]; [3]
  paclitaxel-induced cold allodynia: not significantly expressed
CD-1 mice [2]; [4]
  time of maximal paclitaxel-induced cold allodynia after the first injection: 10 days
patients
  patients progressing to dose-limiting neurotoxicity: 0%

## CC(C)=CCN1CCC2(C)c3cc(O)ccc3CC1C2C (stereo not shown) [pentazocine]
Sigma receptor
  affinity of the sigma receptors to analgesics: very high affinity
